Reference: paper PMC6268093, “Total Synthesis and Antidepressant Activities of Laetispicine and Its Derivatives” (Molecules, 2012)

Experiments:
[1] = tested on: forced swimming mice (immobility); assay: Forced swimming test in mice; format: in vivo, KM mice; settings: for inhibition in vivo at 10 mg/kg: Mus musculus, po, mice, 10 mg/kg i.g., 100 × [(control − experiment)/control], read-out: Reduction (%) of immobility time vs control; for Antidepressant activity compared with laetispicine (in words): forced swimming test in mice, 10 mg/Kg
Protocol: KM mice (18–22 g) of either sex were obtained from Laboratory Animal Center of the College of Medicine, Fudan University. Animals were housed in standard environmental conditions with free access to food and water. The animals were used only once throughout the study. They were allowed to acclimatize to the laboratory seven days before pharmacological tests. The experiment procedures were conducted in compliance with the National Institutes of Health Guide for Care and Use of the laboratory Animals.
Tween 80 was purchased from Sinopharm Chemical Reagent Co., Ltd (Shanghai, China), fluoxetine from Shanghai Zhongxi Pharmaceutical Co., Ltd. All other reagents were of analytical grade. All drugs were dissolved in saline with 2% Tween 80. Drugs (10 mg/kg/2 mL) were administered by intragastric (i.g.) route 60 min before the forced swimming tests. The control group received only saline with 2% Tween 80 simultaneously.
The forced swimming test adopted here is a modification of the method described by Porsoltetal. Briefly, mice were individually forced to swim for 15 min in glass cylinders (height: 20 cm, diameter: 14 cm), containing 10 cm of water at 25 °C, which is a pre-test, and then mice were removed and dried before being returned to cages. Twenty-four hours later, mice were placed in the cylinders again for a 6-min test in the same system depicted above. The duration of immobility was recorded during the last 4 min of the 6-min testing period.
Data obtained were expressed as mean ± SEM and analyzed by analysis of variance (ANOVA) followed by Bonferroni’s test. p-values less than 0.05 (p < 0.05) were used as the significant level. The percent of inhibition was determined using the following formula: Inhibition (%) = 100 × [(control − experiment) / control].

[2] = molecular target: T1, hERG potassium channel (Homo sapiens, UniProt Q12809); assay: hERG inhibition, automated QPatch patch clamp in CHO cells stably expressing hERG
Protocol: (§1) A CHO cell line stably expressing hERG potassium channels were voltage clamped using automated QPatch electrophysiology system. Test items were dissolved in DMSO and diluted with external recording buffer. […] Each cell acted as its own control. […] The extent of inhibition of channel was expressed as a percentage of the control response (minus the test compound).

[3] = molecular target: T1, hERG potassium channel; assay: in vitro
Protocol: as §1

T1 sequence (Q12809 whole entry): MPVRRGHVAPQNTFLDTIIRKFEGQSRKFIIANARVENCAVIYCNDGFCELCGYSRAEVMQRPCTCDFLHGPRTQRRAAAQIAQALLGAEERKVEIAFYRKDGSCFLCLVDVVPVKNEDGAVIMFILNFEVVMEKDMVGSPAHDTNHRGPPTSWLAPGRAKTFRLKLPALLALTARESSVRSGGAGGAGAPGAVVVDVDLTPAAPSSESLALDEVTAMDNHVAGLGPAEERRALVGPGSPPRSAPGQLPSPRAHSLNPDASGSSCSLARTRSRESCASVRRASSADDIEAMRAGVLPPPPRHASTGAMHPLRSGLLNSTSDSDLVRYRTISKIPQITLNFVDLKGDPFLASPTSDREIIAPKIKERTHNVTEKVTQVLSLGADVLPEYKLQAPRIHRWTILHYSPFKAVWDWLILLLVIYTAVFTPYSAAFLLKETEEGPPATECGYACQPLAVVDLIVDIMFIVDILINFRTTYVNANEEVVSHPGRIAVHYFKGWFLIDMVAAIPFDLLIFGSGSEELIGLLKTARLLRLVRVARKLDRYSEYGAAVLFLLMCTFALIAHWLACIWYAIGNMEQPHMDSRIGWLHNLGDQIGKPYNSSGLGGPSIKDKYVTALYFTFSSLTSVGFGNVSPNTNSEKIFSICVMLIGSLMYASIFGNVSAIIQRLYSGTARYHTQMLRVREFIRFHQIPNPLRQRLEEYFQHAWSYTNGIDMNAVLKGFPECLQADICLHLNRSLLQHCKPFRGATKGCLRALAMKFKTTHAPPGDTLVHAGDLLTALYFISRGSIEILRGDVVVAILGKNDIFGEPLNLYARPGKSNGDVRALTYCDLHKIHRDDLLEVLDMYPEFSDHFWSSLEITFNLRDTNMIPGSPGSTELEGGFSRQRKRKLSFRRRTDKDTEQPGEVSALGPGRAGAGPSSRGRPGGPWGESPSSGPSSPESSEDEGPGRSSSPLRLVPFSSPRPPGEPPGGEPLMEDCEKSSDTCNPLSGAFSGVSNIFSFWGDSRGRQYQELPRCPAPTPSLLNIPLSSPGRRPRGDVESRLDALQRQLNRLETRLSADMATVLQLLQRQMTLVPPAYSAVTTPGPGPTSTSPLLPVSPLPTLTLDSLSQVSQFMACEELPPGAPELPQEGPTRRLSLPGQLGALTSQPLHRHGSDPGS

CC(C)CNC(=O)/C=C/C=C/CCC/C=C/Cc1ccc(F)cc1 [Compound 1i, N-isobutyl-11-(4-fluorophenyl)undeca-2E,4E,9E-trienamide]
inhibition in vivo at 10 mg/kg [1]: 43%
Antidepressant activity compared with laetispicine (in words) [1]: better antidepressant activities than that of laetispicine
melting point: 75 to 77 °C
IC50 [2]: > 100 µM
inhibition at 1 µM [3]: 7.1 ± 0.7%
inhibition at 10 µM [3]: 10.7 ± 0.1%
inhibition at 100 µM [3]: 17.7 ± 1.5%

CC(C)CNC(=O)/C=C/C=C/CCC/C=C/Cc1ccc2c(c1)OCCO2 [Compound 1g, N-Isobutyl-11-(2,3-dihydrobenzo [1, 4]dioxin-6-yl)undeca-2E,4E,9E-trienamide]
inhibition in vivo at 10 mg/kg [1]: 29%
Antidepressant activity compared with laetispicine (in words) [1]: less antidepressant activities than laetispicine
melting point: 69 to 72 °C

CC(C)CNC(=O)/C=C/C=C/CCC/C=C/Cc1ccc(Cl)cc1 [Compound 1h, N-Isobutyl-11-(4-chlorophenyl)undeca-2E,4E,9E-trienamide]
inhibition in vivo at 10 mg/kg [1]: 52%
Antidepressant activity compared with laetispicine (in words) [1]: better antidepressant activities than that of laetispicine
IC50 [2]: > 100 µM
inhibition at 1 µM [3]: 8 ± 2.3%
inhibition at 10 µM [3]: 13.9 ± 2%
inhibition at 100 µM [3]: 24.2 ± 4.9%

CC(C)CNC(=O)/C=C/C=C/CCC/C=C/Cc1ccc2c(c1)OCO2 [Laetispicine (1a), Laetispicine]
inhibition in vivo at 10 mg/kg [1]: 33%

COc1cc(C/C=C/CCC/C=C/C=C/C(=O)NCC(C)C)cc(OC)c1OC [Compound 1e, N-Isobutyl-11-(3,4,5-trimethoxyphenyl)undeca-2E,4E,9E-trienamide]
inhibition in vivo at 10 mg/kg [1]: 27%
Antidepressant activity compared with laetispicine (in words) [1]: less antidepressant activities than laetispicine
melting point: 72 to 73 °C

COc1ccc(C/C=C/CCC/C=C/C=C/C(=O)NCC(C)C)cc1OC [Compound 1d, N-Isobutyl-11-(3,4-dimethoxyphenyl)undeca-2E,4E,9E-trienamide]
inhibition in vivo at 10 mg/kg [1]: 6%
Antidepressant activity compared with laetispicine (in words) [1]: lost their antidepressant activities entirely
melting point: 61 to 63 °C

CC(C)CNC(=O)/C=C/C=C/CCC/C=C/Cc1ccccc1 [Compound 1b, N-Isobutyl-11-phenylundeca-2E,4E,9E-trienamide]
inhibition in vivo at 10 mg/kg [1]: 39%
melting point: 80 to 82 °C

CC(C)CNC(=O)/C=C/C=C/CCC/C=C/Cc1ccc2c(c1)CCO2 [Compound 1f, N-Isobutyl-11-(2,3-dihydrobenzofuran-5-yl)undeca-2E,4E,9E-trienamide]
inhibition in vivo at 10 mg/kg [1]: 5%
Antidepressant activity compared with laetispicine (in words) [1]: lost their antidepressant activities entirely

COc1cc(N)c(Cl)cc1C(=O)NC1CCN(CCCOc2ccc(F)cc2)CC1OC (stereo not shown) [Cisapride, reference compound]
inhibition at 1 µM ([2]; human, CHO cells stably expressing hERG): 97.9 ± 0.5%

CNCCC(Oc1ccc(C(F)(F)F)cc1)c1ccccc1 (stereo not shown) [Fluoxetine, fluoxetine, reference compound]
inhibition in vivo at 10 mg/kg [1]: 0%

COc1ccc(C/C=C/CCC/C=C/C=C/C(=O)NCC(C)C)cc1 [Compound 1c, N-Isobutyl-11-(4-methoxyphenyl)undeca-2E,4E,9E-trienamide]
inhibition in vivo at 10 mg/kg [1]: 5%
Antidepressant activity compared with laetispicine (in words) [1]: lost their antidepressant activities entirely
